Test results as given in ChEMBL document CHEMBL1201862, “PubChem BioAssay data set” (2004).
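Cultured in 96-well plates, cells were exposed to test compound for 48 hours across five concentrations. Abbreviation: GI50, concentration required for 50% inhibition of growth.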 Activity calls are given as the source filed them. Rule as the data show it: active = GI50 up to about 1.1 µM and inactive = higher.

Assays:
Assay in all cases: NCI-60 cell line screen, 48 h
Hs-578T = test system: Hs-578T
A498 = test system: A498
UACC-62 = test system: UACC-62
HOP-92 = test system: HOP-92
MDA-N = test system: MDA-N
HCC 2998 = test system: HCC 2998
TK-10 = test system: TK-10
M14 = test system: M14
RXF 393 = test system: RXF 393
SF-295 = test system: SF-295
OVCAR-5 = test system: OVCAR-5
SF-268 = test system: SF-268
UO-31 = test system: UO-31
SK-MEL-5 = test system: SK-MEL-5
HT-29 = test system: HT-29
SNB-75 = test system: SNB-75
MOLT-4 = test system: MOLT-4
T47D = test system: T47D
SK-MEL-2 = test system: SK-MEL-2

Measured: GI50

COc1ccc(NC(=S)Nc2c(C)n(C)n(-c3ccccc3)c2=O)cc1
inactive: Hs-578T > 100 µM | A498 > 100 µM | UACC-62 > 100 µM | HOP-92 > 100 µM | MDA-N > 100 µM | HCC 2998 > 100 µM | TK-10 > 100 µM | M14 > 100 µM | RXF 393 > 100 µM | SF-295 > 100 µM | OVCAR-5 > 100 µM | SF-268 > 100 µM | UO-31 > 100 µM | SK-MEL-5 > 100 µM | HT-29 > 100 µM | SNB-75 > 100 µM | MOLT-4 > 100 µM

Nc1cccc(S(=O)(=O)Nc2nnc(S(N)(=O)=O)s2)c1
inactive: A498 > 100 µM | UACC-62 > 100 µM | T47D > 100 µM | HOP-92 > 100 µM | HCC 2998 > 100 µM | TK-10 > 100 µM | M14 > 100 µM | RXF 393 > 100 µM | SK-MEL-2 > 100 µM | SF-295 > 100 µM | OVCAR-5 > 100 µM | SF-268 > 100 µM | UO-31 > 100 µM | SK-MEL-5 > 100 µM | HT-29 > 100 µM | SNB-75 > 100 µM | MOLT-4 > 100 µM

O=C1CC(c2cccc(Cl)c2)Oc2ccccc21 (stereo not drawn)
inactive: Hs-578T 23.6 µM | A498 24.7 µM | UACC-62 14.9 µM | T47D 12.7 µM | HOP-92 15.2 µM | HCC 2998 15.4 µM | TK-10 > 10 µM | M14 18.1 µM | SK-MEL-2 19.9 µM | SF-295 19.4 µM | SF-268 22.3 µM | UO-31 13.8 µM | SK-MEL-5 17.9 µM | HT-29 17.5 µM | SNB-75 22.6 µM

O=C(CSc1nc2ccc(I)cc2c(=O)n1Cc1ccccc1)NN1C(=O)CSC1c1ccccc1 (stereo not drawn)
inactive: UACC-62 19.3 µM | T47D 28.1 µM | HOP-92 19.4 µM | MDA-N 35.7 µM | HCC 2998 21.5 µM | TK-10 27.4 µM | M14 29.5 µM | RXF 393 25.8 µM | SK-MEL-2 24.3 µM | SF-295 27.1 µM | OVCAR-5 53.8 µM | SF-268 28.8 µM | SK-MEL-5 18.5 µM | HT-29 35 µM | SNB-75 34.2 µM | MOLT-4 29.2 µM

N#CCC(=O)N/N=C(\CCN1CCCC1)CC(c1ccccc1)c1c(O)c2ccccc2oc1=O (stereo not drawn)
inactive: Hs-578T 63.7 µM | A498 > 41.1 µM | UACC-62 > 80.2 µM | HOP-92 27.7 µM | MDA-N 58.6 µM | HCC 2998 21.2 µM | TK-10 > 78.9 µM | M14 98.6 µM | RXF 393 > 100 µM | SK-MEL-2 > 61.1 µM | SF-295 > 100 µM | OVCAR-5 > 100 µM | SF-268 > 100 µM | UO-31 59.8 µM | SK-MEL-5 > 72.1 µM | HT-29 > 88.7 µM | SNB-75 > 89.1 µM | MOLT-4 24.5 µM

S=C(NN=C1NCCCCN1)Nc1ccccc1
inactive: A498 > 100 µM | UACC-62 > 100 µM | T47D > 100 µM | MDA-N 98.4 µM | HCC 2998 > 100 µM | M14 31.7 µM | SF-295 31.5 µM | OVCAR-5 > 100 µM | SF-268 87.3 µM | UO-31 34 µM | SK-MEL-5 48.8 µM | HT-29 23 µM | SNB-75 80.9 µM | MOLT-4 25.5 µM

Cc1[nH]c(=O)nc(NCCNCCO)c1C(=O)Nc1c2ccccc2nc2ccccc12
inactive: A498 > 100 µM | UACC-62 > 100 µM | T47D > 100 µM | HOP-92 > 100 µM | MDA-N > 100 µM | HCC 2998 > 100 µM | TK-10 > 100 µM | M14 > 100 µM | RXF 393 > 100 µM | SK-MEL-2 > 100 µM | SF-295 > 100 µM | OVCAR-5 > 100 µM | UO-31 > 100 µM | SK-MEL-5 > 100 µM | HT-29 > 100 µM | SNB-75 > 100 µM | MOLT-4 > 100 µM

C(=N\c1ccc(-c2nc3ccccc3o2)cc1)/c1ccco1
inactive: A498 37.7 µM | T47D 38.6 µM | HOP-92 30.8 µM | MDA-N 64 µM | M14 79.6 µM | RXF 393 39.7 µM | SK-MEL-2 87.1 µM | OVCAR-5 > 100 µM | UO-31 41.4 µM | SK-MEL-5 30.8 µM | HT-29 63.5 µM | SNB-75 49.1 µM | MOLT-4 29 µM

C=C1C(=O)O[C@H]2C[C@@H](C)[C@@H]3CC(=O)OC[C@@]3(C)CC12 (stereo partly drawn)
inactive: UACC-62 19.2 µM | HOP-92 16.1 µM | HCC 2998 32.1 µM | TK-10 22.8 µM | M14 14.4 µM | SK-MEL-2 35.8 µM | SF-295 21.6 µM | SF-268 27.4 µM | UO-31 49.1 µM | SK-MEL-5 34.3 µM | HT-29 17.5 µM | SNB-75 30.1 µM | MOLT-4 27.5 µM

CC[n+]1cnc(N)c2c(-c3ccc(Cl)cc3)cn(-c3ccc(C)cc3)c21
inactive: A498 11.4 µM | UACC-62 11.4 µM | T47D 12 µM | HOP-92 11.2 µM | MDA-N 12.5 µM | HCC 2998 4.33 µM | TK-10 17.6 µM | M14 1.94 µM | RXF 393 3.05 µM | SK-MEL-2 18.7 µM | SF-295 12.7 µM | OVCAR-5 15.8 µM | SF-268 13.6 µM | UO-31 9.93 µM | SK-MEL-5 10.3 µM | HT-29 4.36 µM | SNB-75 3.56 µM | MOLT-4 4.52 µM

COP(=O)(CP(=O)(OC)OCCC(C)CCC=C(C)C)OC (stereo not drawn)
inactive: A498 > 100 µM | T47D > 100 µM | MDA-N > 100 µM | HCC 2998 > 100 µM | TK-10 > 100 µM | M14 > 100 µM | RXF 393 > 100 µM | SK-MEL-2 > 100 µM | SF-295 > 100 µM | OVCAR-5 > 100 µM | SF-268 > 100 µM | UO-31 > 100 µM | SK-MEL-5 > 100 µM | SNB-75 > 100 µM | MOLT-4 > 100 µM

Nc1nc(Cl)cc(NC23CC4CC(CC(C4)C2)C3)n1
inactive: A498 > 100 µM | UACC-62 > 100 µM | T47D > 100 µM | HOP-92 > 100 µM | MDA-N > 100 µM | HCC 2998 > 100 µM | M14 > 100 µM | RXF 393 > 100 µM | SK-MEL-2 19.4 µM | SF-295 85.5 µM | OVCAR-5 > 100 µM | SF-268 47.1 µM | UO-31 > 100 µM | SNB-75 26.2 µM | MOLT-4 > 100 µM
